Experimental data reported in paper PMC4053474 (Bioconjugate chemistry, 2008).

Tests used:
[1] = test system: Integrin αVβ6-positive H2009 cells; assay: cell viability assay; type: cell-based, human; conditions: 200 nM to 5 µM, 24 h exposure, 72 h post-incubation, CellTiter Glo
[2] = test system: Integrin αVβ6-positive H2009 cells; assay: flow cytometric analysis of doxorubicin uptake; type: cell-based, human; conditions: 30 µM, 2 h, flow cytometry
[3] = test system: H2009 cells; conditions: ref personal communication, Drs. John D. Minna and Michael Peyton; cited from earlier work
[4] = biological target: αvβ6 (Homo sapiens, UniProt P06756+P18564); assay: binding affinity for integrin αvβ6; conditions: data not shown
Chain of αvβ6 (P06756 31-889 limits assumed): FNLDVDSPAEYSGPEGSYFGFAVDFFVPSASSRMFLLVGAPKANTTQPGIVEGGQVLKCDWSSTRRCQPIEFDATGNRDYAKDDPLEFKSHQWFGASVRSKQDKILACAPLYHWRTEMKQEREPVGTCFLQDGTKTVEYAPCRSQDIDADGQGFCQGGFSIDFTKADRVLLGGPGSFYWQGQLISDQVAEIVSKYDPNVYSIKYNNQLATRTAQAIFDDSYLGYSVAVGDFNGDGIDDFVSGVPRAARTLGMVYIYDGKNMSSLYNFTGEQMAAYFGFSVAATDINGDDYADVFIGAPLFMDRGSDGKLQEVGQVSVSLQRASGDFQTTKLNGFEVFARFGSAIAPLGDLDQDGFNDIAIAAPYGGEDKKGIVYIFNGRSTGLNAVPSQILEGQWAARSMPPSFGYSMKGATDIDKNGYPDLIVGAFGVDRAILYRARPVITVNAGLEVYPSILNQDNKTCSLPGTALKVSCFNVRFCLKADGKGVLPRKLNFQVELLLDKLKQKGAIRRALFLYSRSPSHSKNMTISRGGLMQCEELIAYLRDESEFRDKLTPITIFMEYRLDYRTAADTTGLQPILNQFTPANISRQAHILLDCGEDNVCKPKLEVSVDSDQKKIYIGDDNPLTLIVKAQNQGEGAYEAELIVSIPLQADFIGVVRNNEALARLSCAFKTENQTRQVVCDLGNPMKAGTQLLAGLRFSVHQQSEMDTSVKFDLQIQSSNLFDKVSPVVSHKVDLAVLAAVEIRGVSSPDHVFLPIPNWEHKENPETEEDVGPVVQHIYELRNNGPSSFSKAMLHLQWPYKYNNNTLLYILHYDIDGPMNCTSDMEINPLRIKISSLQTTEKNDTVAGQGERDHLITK
Chain of αvβ6 (P06756 891-1048 partner limits assumed): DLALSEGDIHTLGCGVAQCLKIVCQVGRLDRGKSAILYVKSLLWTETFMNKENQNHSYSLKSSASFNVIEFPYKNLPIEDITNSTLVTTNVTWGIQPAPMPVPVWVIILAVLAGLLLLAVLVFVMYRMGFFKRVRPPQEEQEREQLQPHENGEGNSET
Chain of αvβ6 (P18564 22-788): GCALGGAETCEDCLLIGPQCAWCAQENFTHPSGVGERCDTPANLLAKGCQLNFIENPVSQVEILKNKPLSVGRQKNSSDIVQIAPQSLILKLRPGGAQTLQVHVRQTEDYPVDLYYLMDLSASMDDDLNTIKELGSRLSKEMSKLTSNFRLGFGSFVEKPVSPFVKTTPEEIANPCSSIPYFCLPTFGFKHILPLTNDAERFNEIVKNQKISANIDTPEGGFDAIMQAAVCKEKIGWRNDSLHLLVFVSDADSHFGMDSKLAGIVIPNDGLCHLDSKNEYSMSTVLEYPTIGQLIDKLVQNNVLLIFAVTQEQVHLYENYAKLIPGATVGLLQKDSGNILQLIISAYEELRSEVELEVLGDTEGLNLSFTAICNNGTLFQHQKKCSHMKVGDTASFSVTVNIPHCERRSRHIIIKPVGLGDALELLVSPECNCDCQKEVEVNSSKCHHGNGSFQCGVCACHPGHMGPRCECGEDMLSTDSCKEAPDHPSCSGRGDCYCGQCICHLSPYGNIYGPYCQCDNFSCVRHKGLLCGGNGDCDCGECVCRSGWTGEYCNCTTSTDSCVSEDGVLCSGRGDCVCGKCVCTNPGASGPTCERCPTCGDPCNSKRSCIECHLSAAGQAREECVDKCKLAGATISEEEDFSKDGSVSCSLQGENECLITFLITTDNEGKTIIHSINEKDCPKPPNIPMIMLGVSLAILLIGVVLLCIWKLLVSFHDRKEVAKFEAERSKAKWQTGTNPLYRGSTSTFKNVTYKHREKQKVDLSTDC

Compound: COc1cccc2c1C(=O)c1c(O)c3c(c(O)c1C2=O)C[C@@](O)(C(=O)CO)C[C@@H]3O[C@H]1C[C@H](N)[C@H](O)[C@H](C)O1 [doxorubicin, reference compound]
- pairwise comparison of viability of H2009 and H1299 cells [1]: did not demonstrate any statistical difference
- internalization into H2009 compared with H1299 cells [2]: internalizes into both cell lines equally

Compound: CC(=O)O[C@H]1C(=O)[C@@]2(C)[C@H]([C@H](OC(=O)c3ccccc3)[C@]3(O)C[C@H](OC(=O)[C@H](O)[C@@H](NC(=O)c4ccccc4)c4ccccc4)C(C)=C1C3(C)C)[C@]1(OC(C)=O)CO[C@@H]1C[C@@H]2O [paclitaxel]
- IC50 relative to that of doxorubicin (fold lower) [3]: 40 fold

Compound: DALRLQGTLR [scrambled sequence peptide]
- binding affinity for αvβ6 [4]: no binding affinity
